# In US10239903B2, “Pt (IV) derivatives and nanocarriers comprising them” (Yissum Research Development Company of the Hebrew …, priority 2014, dated 2019):
# What was measured:
# A2780 cell line = experiment: MTT cytotoxicity assay; assay type: cell-based; details: for IC50: cisplatin sensitive parent line; for IC50 A2780: 120 h treatment
# Method: (§4) To evaluate the efficacy of the various drugs, cells were seeded in a sterile, 24-well plate and incubated in the presence of the drug for 72 h/120 h at 37° C., 5% CO2. The number of cells alive was quantified using (3-(4,5-dimethylthiazol-2-yl)-2,5 diphenyltetrazolium bromide) (MTT) assay. The cells were incubated for 2 h with MTT, DMSO was added to dissolve the crystals and the plates were measured at 540 nm. Viability (%) graphs were constructed relative to the control of every assay. The data were plotted in a graph, lines connected the points, and the values were determined from the interpolated graph.
# A2780-cisR cell line = experiment: MTT cytotoxicity assay; assay type: cell-based; details: for IC50: cisplatin resistant line; for RF, resistance factor: ratio of IC50 in A2780-cisR to A2780; for IC50 A2780-cisR: 120 h treatment
# Method: as §4
# CT-26-luc cell line = experiment: MTT antiproliferative assay; assay type: cell-based, murine; details: 120 h incubation
# [1] = Reduction potentials by cyclic voltammetry; assay type: physicochemical; details: versus Ag/AgCl
# PC-3 cell line = experiment: MTT cytotoxicity assay; details: for IC50 PC-3: 120 h treatment; for IC50: read-out: IC50 PC-3, 120 h incubation
# Method: (§5) The in vitro experiments were performed in cell lines of lung cancer (A549), prostate cancer (DU145 and PC-3), pancreatic cancer (BxPC-3) and ovarian cancer (SKOV-3 and OVCAR-8). A549, BxPC-3 and OVCAR-8 cells were grown in RPMI medium supplemented with 10% fetal bovine serum (Gibco), 1% L-glutamine, 100 U/ml penicillin, 100 ug/ml streptomycin and 0.13% w/w gentamycin. PC-3 cells were cultured in DMEM plus 10% fetal bovine serum, 1% L-glutamine, 100 U/ml penicillin, 100 μg/ml streptomycin and 1% pyrovate. DU145 cells were grown in RPMI1640 medium supplemented with 10% fetal bovine serum, 100 U/ml penicillin, and 100 ug/ml streptomycin. SKOV-3 cells were cultured McCoy's 5A medium supplemented with 10% fetal bovine serum, 100 U/ml penicillin, and 100 ug/ml streptomycin. The cell lines were maintained at 37° C. under 5% CO2. […] The drugs were dissolved in DMSO and were added to the appropriate medium. Drug concentrations were chosen in a range that would never expose cells to more than 0.5% DMSO i.e. for 50 μg/ml maximal concentration; 0.5 mg of OXA-PAL-ACT was dissolved in 50 μl DMSO and then added to 10 ml cell medium.
# as §4
# (§6) The cells were treated continuously for 120 h.
# PC-3 LUC cell line = experiment: MTT cytotoxicity assay; details: for IC50 PC-3 LUC: 120 h treatment; for IC50: read-out: IC50 PC-3-luc, 120 h incubation
# Method: as §4, §6
# BxPC-3 cell line = experiment: MTT cytotoxicity assay; details: for IC50 BXPC-3: 120 h treatment; for IC50: read-out: IC50 BxPC-3, 120 h incubation
# Method: as §5, §4, §6
# OVCAR-8 cell line = experiment: MTT cytotoxicity assay; details: for IC50 OVCAR-8: 120 h treatment; for IC50: read-out: IC50 OVCAR-8, 120 h incubation
# Method: as §5, §4, §6
# SKOV-3 cell line = experiment: MTT cytotoxicity assay; details: for IC50 SKOV-3: 120 h treatment; for IC50: read-out: IC50 SKOV-3, 120 h incubation
# Method: as §5, §4, §6
# [2] = Log P determination, shake flask method; details: n-octanol and water
# Method: The partition coefficient of the new Pt compounds was determined in n-octanol and water by shake flask method.
# A549 cell line = experiment: MTT cytotoxicity assay; assay type: cell-based; details: 120 h treatment
# Method: A549, BxPC-3 and OVCAR-8 cells were grown in RPMI medium supplemented with 10% fetal bovine serum (Gibco), 1% L-glutamine, 100 U/ml penicillin, 100 ug/ml streptomycin and 0.13% w/w gentamycin. […] The cell lines were maintained at 37° C. under 5% CO2. All cell culture products were obtained from Biological Industries (Beit HaEmek, Israel). The drugs were dissolved in DMSO and were added to the appropriate medium. Drug concentrations were chosen in a range that would never expose cells to more than 0.5% DMSO i.e. for 50 μg/ml maximal concentration; 0.5 mg of OXA-PAL-ACT was dissolved in 50 μl DMSO and then added to 10 ml cell medium.
# as §4
# HCT-15 cell line = experiment: MTT cytotoxicity assay; assay type: cell-based; details: 120 h treatment
# Method: as §4
# A498 cell line = experiment: MTT cytotoxicity assay; assay type: cell-based; details: 120 h treatment
# Method: as §4
# A375 cell line = experiment: MTT cytotoxicity assay; assay type: cell-based; details: 120 h treatment
# Method: as §4
# BxPc-3-luc2 cell line = experiment: MTT antiproliferative assay; assay type: cell-based, human
# Method: (§1) The antiproliferative activities of the novel compound (free and incorporated in NPs) and OXA were determined in HCT 116-luc2 (human colorectal cancer) and BxPc-3-luc2 (human pancreatic cancer) cell lines by the MTT assay.
# HCT 116-luc2 cell line = experiment: MTT antiproliferative assay; assay type: cell-based, human
# Method: as §1
# HaCaT cell line = details: non-cancer human keratinocytes
# Description: (§2) HaCaT cell line monolayer representing human keratinocytes, RASM line monolayer representing Rat Aortic Smooth Muscle cells.
# [3] = system: RASM (Rat Aortic Smooth Muscle cells); details: non-cancer Rat Aortic Smooth Muscle cells
# Description: as §2
# [4] = system: SKOV-3 and SKOV-3-luc cells; experiment: Whole-cell Pt accumulation (cellular uptake) by ICP-MS; assay type: cell-based, human; details: 24 h exposure, 5, 15, 25 μg/ml
# Method: (§3) Following incubation, the drug-containing medium was removed, and cells were rinsed twice with cold PBS, trypsinized and were centrifuged into a pellet (4400 rpm, 5 min). 500 μl of nitric acid was added to cell pellets, and overnight incubated at 70° C. The samples were prepared by dilution using 0.1% SDS and 1% nitric acid lysis solution, and analyzed for Pt content by ICP-MS. DNA was isolated and purified from cell lines with the DNeasy Blood and Tissue Kit (Qiagen).
# Cellular accumulation of platinum is a key step in cellular platinum drug pharmacology.
# SKOV-3 cells = experiment: DNA platination by ICP-MS; assay type: cell-based, human; details: 24 h exposure, 25 μg/ml
# Method: as §3
# SKOV-3 luc tumor = experiment: Ovarian carcinoma mouse model, bioluminescent imaging; assay type: in vivo, SCID mice; details: from day 60; 15 mg/kg i.v. once a week, 4 treatments
# Method: For induction of an ovarian carcinoma mouse model, 5-6 weeks-old severe combined immunodeficiency (SCID) mice, divided into 4 groups, were injected with 2×10^6 SKOV-3 luc cells directly into intraperitoneal cavity (i.p.). The cells were suspended in 100 μl PBS.
# All treatments were given in an identical treatment regimen.
# BxPc-3-luc2 tumor = experiment: Pancreatic carcinoma mouse model, bioluminescent imaging; assay type: in vivo, SCID-bg mice; details: i.v. once a week, 4 treatments
# Description: 5-6 weeks-old SCID mice were inoculated subcutaneously with 2×10^6 BxPC-3-luc cells.
# Pancreatic tumors were induced by subcutaneous injection of the luciferase-transfected pancreas adenocarcinoma cells, BxPc-3-luc2, to SCID-bg mice. Tumor development and progression was validated by bioluminescent imaging. On the eighth day following tumor cells injection, a four-treatment cycle (intravenous route) was initiated (once a week).
# HCT-116-luc2 tumor = experiment: Colon cancer mouse model, bioluminescent imaging; assay type: in vivo, SCID-bg mice; details: 33 days from inoculation; 9 mg/kg OPA equivalent to 5 mg/kg OXA, i.v. every fourth day
# Method: 5-6 weeks-old SCID mice were inoculated subcutaneously with 1×10^6 HCT-116-luc2 cells. 1 day following tumor inoculation, treatment was initiated. Treatment was administered once every fourth day by i.v. injection (tail), 4 treatments in total.
# Results are presented as mean±SEM. […] In fact equivalent doses were […] since 9 mg/kg OPA is equivalent to 5 mg/kg OXA.
# [5] = for body weight variation over time: OXA 5 mg/kg, OXA-PAL-ACT 15 mg/kg i.v. once a week; for maximum tolerated dose: i.v., solution
SMILES,IC50 (A2780 cell line),IC50 (A2780-cisR cell line),"RF, resistance factor (A2780-cisR cell line)",IC50 (CT-26-luc cell line),"Ep, reduction potential [1]",IC50 PC-3 (PC-3 cell line),IC50 (PC-3 cell line),IC50 PC-3 LUC (PC-3 LUC cell line),IC50 (PC-3 LUC cell line),IC50 BXPC-3 (BxPC-3 cell line),IC50 (BxPC-3 cell line),IC50 OVCAR-8 (OVCAR-8 cell line),IC50 (OVCAR-8 cell line),IC50 SKOV-3 (SKOV-3 cell line),IC50 (SKOV-3 cell line),Measured logP [2],IC50 A549 (A549 cell line),IC50 HCT-15 (HCT-15 cell line),IC50 A498 (A498 cell line),IC50 A375 (A375 cell line),further results
"CCCCCCCCCCCCCCCC(=O)[O][Pt]1([O]C(=O)CCCCCCCCCCCCCCC)[O]C(=O)C(=O)[O]1.NC1CCCCC1N [OXADP, oxaliplatin dipalmitate]",7500 ± 500 nM,> 55000 nM,>7.3,> 55000 nM,−0.53 ± 0.02 V,2.20 ± 1.21 µg/mL,2420 ± 1330 nM,21.35 ± 19.30 µg/mL,23500 ± 21200 nM,24.07 ± 12.96 µg/mL,26500 ± 14300 nM,16 ± 3.12 µg/mL,17600 ± 3430 nM,N.D* (N.D—Not Determined (The IC50 value is higher than maximal tested concentration-50 μg/ml)),> 55000 nM,3.49,–,–,–,–,–
"CCCCCCCCCCCCCCCC(=O)[O][Pt]12([O]C(C)=O)([NH]C3CCCCC3[NH]1)[O]C(=O)C(=O)[O]2 (centres unmarked) [OXA-PAL-ACT, oxaliplatin palmitate acetate]",360 ± 10 nM,340 ± 10 nM,0.93,620 ± 240 nM,−0.54 ± 0.02 V,0.25 ± 0.01 µg/mL,350 ± 10 nM,0.33 ± 0.08 µg/mL,460 ± 110 nM,0.25 ± 0.01 µg/mL,350 ± 10 nM,0.33 ± 0.03 µg/mL,460 ± 30 nM,0.39 ± 0.02 µg/mL,540 ± 30 nM,2.06,0.34 µg/mL,0.43 µg/mL,0.20 µg/mL,0.16 µg/mL,"IC50 A2780 (A2780 cell line): 0.26 µg/mL; IC50 A2780-cisR (A2780-cisR cell line): 0.24 µg/mL; resistance factor (A2780-cisR cell line; calculated from IC50 values of dose-response curves, A2780-cisR vs A2780 (FIG. 10)): 1; IC50 (BxPc-3-luc2 cell line): 310 ± 90 nM; IC50 (HCT 116-luc2 cell line): 370 ± 20 nM; therapeutic ratio in HaCaT (HaCaT cell line): higher than 1.8; therapeutic ratio in RASM [3]: > 2; cellular accumulation of platinum [4]: substantially higher compared to that of oxaliplatin; nucleus DNA platination (SKOV-3 cells): higher DNA-platination; tumor growth (bioluminescence) efficacy (SKOV-3 luc tumor): more efficient that OXA; pancreatic tumor growth inhibition (BxPc-3-luc2 tumor): significantly more efficient in pancreatic tumor growth inhibition compared to OXA and the control; tumor growth inhibition (HCT-116-luc2 tumor): no significant efficacy difference; body weight variation over time [5]: did not reduce the animal weight; maximum tolerated dose [5]: 15 mg/kg; observed Log P ([2]; n=5): 2.76±0.14"
"O=C1[O][Pt]2([NH][C@@H]3CCCC[C@H]3[NH]2)[O]C1=O [Oxaliplatin, reference compound]",780 ± 20 nM,4100 ± 250 nM,–,5600 ± 600 nM,–,3.63 ± 0.15 µg/mL,9160 ± 370 nM,11 ± 3.60 µg/mL,27700 ± 9050 nM,1.35 ± 0.35 µg/mL,3380 ± 870 nM,3.75 ± 1.77 µg/mL,9440 ± 4440 nM,32.5 ± 3.54 µg/mL,58300 ± 6340 nM,–,–,–,–,–,IC50 A2780 (A2780 cell line): 0.31 µg/mL; IC50 A2780-cisR (A2780-cisR cell line): 1.63 ± 0.11 µg/mL; IC50 (BxPc-3-luc2 cell line): 62700 ± 2520 nM; IC50 (HCT 116-luc2 cell line): 2300 ± 1080 nM; pancreatic tumor growth inhibition (BxPc-3-luc2 tumor): did not show any efficacy; body weight variation over time [5]: marked weight reduction; maximum tolerated dose [5]: 5 mg/kg
"N.N.[Cl][Pt][Cl] [Cisplatin, cisplatin, reference compound]",940 ± 40 nM,14600 ± 1440 nM,15.53,–,–,–,–,–,–,–,–,–,–,–,–,–,8.35 µg/mL,11.32 µg/mL,17.53 µg/mL,3.75 ± 1.77 µg/mL,–
CCCCCCCCCCCCCCCC(=O)[O][Pt]1([O]C(=O)CCC(=O)O)[O]C(=O)C(=O)[O]1.NC1CCCCC1N [OXA-PAL-SUCC],460 ± 10 nM,1900 ± 200 nM,4.13,4430 ± 930 nM,−0.60 ± 0.01 V,0.35 ± 0.01 µg/mL,450 ± 10 nM,0.78 ± 0.88 µg/mL,1010 ± 1130 nM,1.23 ± 1.18 µg/mL,1590 ± 1520 nM,2.83 ± 0.38 µg/mL,3670 ± 490 nM,20.67 ± 15.88 µg/mL,26800 ± 20600 nM,2.07,0.45 µg/mL,0.35 µg/mL,0.24 µg/mL,0.19 µg/mL,–
